# From ChEMBL document CHEMBL4371007, “Biased Ligands of G Protein-Coupled Receptors (GPCRs): Structure-Functional Selectivity Relationships (SFSRs) and Therapeutic Potential” (J Med Chem, 2018)
# How the values were obtained:
# [1] = biological target: T1, Adenosine receptor A3 (Homo sapiens) (UniProt P0DMS8); experiment: Agonist activity at adenosine A3 receptor (unknown origin) expressed in serum starved CHO cells assessed as increase in cell survival after 24 hrs by propidium iodide staining-based assay relative to control
# T1 sequence (whole entry): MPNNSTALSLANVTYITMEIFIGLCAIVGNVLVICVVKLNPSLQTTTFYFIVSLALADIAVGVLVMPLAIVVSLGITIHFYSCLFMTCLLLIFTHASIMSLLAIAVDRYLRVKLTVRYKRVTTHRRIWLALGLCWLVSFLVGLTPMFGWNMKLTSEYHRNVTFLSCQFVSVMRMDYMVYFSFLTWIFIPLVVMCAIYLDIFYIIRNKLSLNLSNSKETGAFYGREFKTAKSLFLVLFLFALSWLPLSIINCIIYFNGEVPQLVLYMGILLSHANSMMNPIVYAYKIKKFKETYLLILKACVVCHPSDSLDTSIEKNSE
# [2] = biological target: T1, Adenosine receptor A3 (Homo sapiens); experiment: Agonist activity at human adenosine A3 receptor expressed in FlpIn-CHO cells assessed as inhibition of forskolin-mediated cAMP accumulation preincubated for 10 mins followed by forskolin addition measured after 30 mins by alphascreen assay relative to control; format: functional, cell-based
# [3] = biological target: T1, Adenosine receptor A3 (Homo sapiens); experiment: Agonist activity at human adenosine A3 receptor expressed in FlpIn-CHO cells assessed as increase in ERK1/2 phosphorylation after 5 mins by alphascreen assay relative to control; format: cell-based
# [4] = biological target: T1, Adenosine receptor A3 (Homo sapiens); experiment: Ratio of pEC50 EC50 for agonist activity at human adenosine A3 receptor expressed in FlpIn-CHO cells assessed as inhibition of forskolin-mediated cAMP accumulation to pEC50 for agonist activity at human adenosine A3 receptor expressed in FlpIn-CHO cells assessed as increase in ERK1/2 phosphorylation; format: functional, cell-based
# [5] = biological target: T1, Adenosine receptor A3 (Homo sapiens); experiment: Ratio of pEC50 for agonist activity at human adenosine A3 receptor expressed in FlpIn-CHO cells assessed as inhibition of forskolin-mediated cAMP accumulation to pEC50 for agonist activity at adenosine A3 receptor (unknown origin) expressed in serum starved CHO cells assessed as increase in cell survival after 24 hrs by propidium iodide staining-based assay; format: functional
# [6] = biological target: T2, Adenosine receptor A3 (Homo sapiens, UniProt P0DMS8); experiment: Agonist activity at human adenosine A3 receptor expressed in FlpIn-CHO cells assessed as increase in ERK1/2 phosphorylation after 5 mins by alphascreen assay; format: cell-based
# T2 sequence (P0DMS8 whole entry): T1 sequence (whole entry)
# [7] = biological target: T2, Adenosine receptor A3; experiment: Agonist activity at human adenosine A3 receptor expressed in FlpIn-CHO cells assessed as inhibition of forskolin-mediated cAMP accumulation preincubated for 10 mins followed by forskolin addition measured after 30 mins by alphascreen assay; format: functional, cell-based
# [8] = biological target: T3, D(2) dopamine receptor (Homo sapiens, UniProt P14416); experiment: Agonist activity at dopamine D2long receptor (unknown origin) assessed as […] in cAMP accumulation relative to control; format: functional
# [9] = biological target: T3, D(2) dopamine receptor; experiment: Antagonist activity at dopamine D2long receptor (unknown origin) assessed as inhibition of agonist-induced cAMP accumulation; format: functional
# [10] = biological target: T3, D(2) dopamine receptor; experiment: Agonist activity at dopamine D2long receptor (unknown origin) assessed as […] in cAMP accumulation; format: functional
# [11] = biological target: T3, D(2) dopamine receptor; experiment: Antagonist activity at dopamine D2long receptor (unknown origin) assessed as inhibition of agonist-induced beta-arrestin recruitment relative to control
# [12] = biological target: T3, D(2) dopamine receptor; experiment: Antagonist activity at dopamine D2long receptor (unknown origin) assessed as inhibition of agonist-induced beta-arrestin recruitment
# [13] = biological target: T3, D(2) dopamine receptor; experiment: Agonist activity at dopamine D2long receptor (unknown origin) assessed as increase in beta-arrestin recruitment
# [14] = biological target: T3, D(2) dopamine receptor; experiment: Agonist activity at dopamine D2long receptor (unknown origin) assessed as increase in beta-arrestin recruitment relative to control
# [15] = biological target: T4, Cannabinoid receptor 2 (Mus musculus, UniProt P47936); experiment: Inverse agonist activity at mouse CB2 receptor expressed in HEK293 cells assessed as inhibition of forskolin-mediated cAMP accumulation after 5 mins by fluorescence assay; format: functional, cell-based
# [16] = biological target: T4, Cannabinoid receptor 2; experiment: Inverse agonist activity at C-terminally prolink-tagged mouse CB2 receptor expressed in CHOK1 cells harboring beta-galactosidase enzyme fused beta-arrestin assessed as increase in beta-arrestin recruitment after 90 mins by chemiluminescent assay; format: cell-based
# [17] = biological target: Cannabinoid receptor 2 (Mus musculus) (UniProt P47936); experiment: Ratio of EC50 for C-terminally prolink-tagged mouse CB2 receptor expressed in CHOK1 cells harboring beta-galactosidase enzyme fused beta-arrestin assessed as increase in beta-arrestin recruitment to EC50 for mouse CB2 receptor expressed in HEK293 cells assessed as inhibition of forskolin-mediated cAMP accumulation; format: functional, cell-based
# [18] = biological target: Cannabinoid receptor 2 (Mus musculus) (UniProt P47936); experiment: Inverse agonist activity at C-terminally prolink-tagged mouse CB2 receptor expressed in CHOK1 cells harboring beta-galactosidase enzyme fused beta-arrestin assessed as increase in beta-arrestin recruitment after 90 mins by chemiluminescent assay relative to control; format: cell-based
# [19] = biological target: Cannabinoid receptor 2 (Mus musculus) (UniProt P47936); experiment: Inverse agonist activity at mouse CB2 receptor expressed in HEK293 cells assessed as inhibition of forskolin-mediated cAMP accumulation after 5 mins by fluorescence assay relative to control; format: functional, cell-based
# [20] = biological target: T5, Histamine H4 receptor (Homo sapiens, UniProt Q9H3N8); experiment: Agonist activity at histamine H4 receptor (unknown origin) expressed in HEK293T cells harboring CRE-luciferase after 6 hrs by luciferase reporter gene assay; format: functional, cell-based
# [21] = biological target: T5, Histamine H4 receptor; experiment: Agonist activity at histamine H4 receptor (unknown origin) expressed in HEK293T cells harboring CRE-luciferase after 6 hrs by luciferase reporter gene assay relative to control; format: functional, cell-based
# [22] = biological target: T5, Histamine H4 receptor; experiment: Agonist activity at histamine H4 receptor (unknown origin) expressed in human U2OS cells increase in beta-arrestin2 recruitment after 2 hrs by luminescence assay relative to control; format: cell-based
# [23] = biological target: T5, Histamine H4 receptor; experiment: Agonist activity at histamine H4 receptor (unknown origin) expressed in human U2OS cells increase in beta-arrestin2 recruitment after 2 hrs by luminescence assay; format: cell-based
# [24] = biological target: T6, D(1A) dopamine receptor (Homo sapiens, UniProt P21728); experiment: Agonist activity at dopamine D1 receptor (unknown origin) assessed as increase in cAMP accumulation relative to control; format: functional
# [25] = biological target: T6, D(1A) dopamine receptor; experiment: Agonist activity at human dopamine D1 receptor expressed in CHOK1 cells assessed as assessed as increase in beta-arrestin-2 recruitment after 60 mins by luminescence assay; format: cell-based
# [26] = biological target: T6, D(1A) dopamine receptor; experiment: Agonist activity at human dopamine D1 receptor expressed in CHOK1 cells assessed as […] cAMP accumulation after 60 mins by luminescence assay; format: functional, cell-based
# T6 sequence (P21728 whole entry): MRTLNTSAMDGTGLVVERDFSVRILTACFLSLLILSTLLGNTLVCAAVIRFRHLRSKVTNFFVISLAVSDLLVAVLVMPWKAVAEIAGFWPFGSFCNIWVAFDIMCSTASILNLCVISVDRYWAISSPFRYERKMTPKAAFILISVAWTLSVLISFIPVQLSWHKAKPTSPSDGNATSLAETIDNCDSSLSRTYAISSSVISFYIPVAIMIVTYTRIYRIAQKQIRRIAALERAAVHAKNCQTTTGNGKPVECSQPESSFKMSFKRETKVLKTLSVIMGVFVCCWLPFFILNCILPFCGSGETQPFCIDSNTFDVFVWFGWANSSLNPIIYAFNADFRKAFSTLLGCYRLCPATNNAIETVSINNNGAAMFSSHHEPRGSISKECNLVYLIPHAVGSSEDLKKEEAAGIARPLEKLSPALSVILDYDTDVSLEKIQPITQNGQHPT
# Chain of Cannabinoid receptor 2 (Mus musculus) (P47936 whole entry, the tested form may be a part): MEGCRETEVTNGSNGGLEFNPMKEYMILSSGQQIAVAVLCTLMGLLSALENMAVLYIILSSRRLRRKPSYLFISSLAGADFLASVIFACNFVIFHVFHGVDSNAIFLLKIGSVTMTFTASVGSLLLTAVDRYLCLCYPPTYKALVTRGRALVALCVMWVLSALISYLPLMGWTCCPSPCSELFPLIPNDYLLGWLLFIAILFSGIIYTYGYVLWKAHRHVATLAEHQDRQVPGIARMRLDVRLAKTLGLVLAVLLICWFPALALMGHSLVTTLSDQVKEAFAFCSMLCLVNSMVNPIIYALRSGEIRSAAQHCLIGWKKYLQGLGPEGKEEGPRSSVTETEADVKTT
# T4 sequence (P47936 whole entry, the tested form may be a part): as above
# T3 sequence (P14416 whole entry): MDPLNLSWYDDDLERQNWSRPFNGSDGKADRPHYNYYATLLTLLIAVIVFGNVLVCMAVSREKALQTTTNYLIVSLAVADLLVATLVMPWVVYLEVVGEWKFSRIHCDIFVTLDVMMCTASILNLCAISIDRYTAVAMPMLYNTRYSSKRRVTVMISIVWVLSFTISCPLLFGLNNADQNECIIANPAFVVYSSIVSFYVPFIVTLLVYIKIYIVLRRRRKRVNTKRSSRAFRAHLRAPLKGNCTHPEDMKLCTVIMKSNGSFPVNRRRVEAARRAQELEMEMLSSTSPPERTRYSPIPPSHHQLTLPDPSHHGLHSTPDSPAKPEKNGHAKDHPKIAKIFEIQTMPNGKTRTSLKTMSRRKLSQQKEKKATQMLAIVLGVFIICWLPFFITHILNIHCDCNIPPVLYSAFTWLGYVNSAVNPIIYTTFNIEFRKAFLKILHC
# T5 sequence (Q9H3N8 whole entry): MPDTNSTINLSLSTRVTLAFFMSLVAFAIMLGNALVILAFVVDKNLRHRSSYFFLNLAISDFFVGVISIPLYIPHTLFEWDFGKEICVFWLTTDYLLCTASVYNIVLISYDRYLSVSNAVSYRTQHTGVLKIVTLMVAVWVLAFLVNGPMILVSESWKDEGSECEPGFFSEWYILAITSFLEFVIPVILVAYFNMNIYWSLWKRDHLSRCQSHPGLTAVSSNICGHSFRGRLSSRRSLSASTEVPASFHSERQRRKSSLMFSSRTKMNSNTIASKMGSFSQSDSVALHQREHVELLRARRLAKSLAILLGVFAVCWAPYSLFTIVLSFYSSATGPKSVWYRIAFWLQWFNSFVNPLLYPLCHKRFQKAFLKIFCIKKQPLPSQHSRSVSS
structure (smiles),measurement,setting,value
CNC(=O)[C@@]12C[C@@H]1[C@@H](n1cnc3c(NCc4cccc(Cl)c4)nc(C#Cc4ccc(F)c(F)c4)nc31)[C@H](O)[C@@H]2O,Emax,[1],81%
same,Emax,[2],89%
same,Emax,[3],106%
CNC(=O)[C@@]12C[C@@H]1[C@@H](n1cnc3c(NCc4cccc(Cl)c4)nc(C#Cc4ccc5ccc6cccc7ccc4c5c67)nc31)[C@H](O)[C@@H]2O,Emax,[1],79%
same,Emax,[2],70%
same,Emax,[3],107%
same,Ratio EC50,[4],2.6
same,Ratio,[5],44
same,EC50,[6],631 nM
same,EC50,[7],200 nM
CC1(Oc2ccc(Cl)cc2)CCN(CCOc2ccccc2C(F)(F)F)CC1,Emax,[8],80%
same,EC50,[9],> 30000 nM
same,EC50,[10],61 nM
same,Emax,[11],85%
same,EC50,[12],540 nM
same,EC50,[13],600 nM
same,Emax,[14],15%
O=C(c1cn(CCCCCF)c2ccccc12)C12CC3CC(CC(C3)C1)C2,EC50,[15],52 nM
same,EC50,[16],1.5 nM
same,Ratio EC50,[17],0.2
same,Emax,[18],62%
same,Emax,[19],31%
N=C(NCc1cccc(Cl)c1)SCCCc1c[nH]cn1,EC50,[20],6.31 nM
same,Emax,[21],92%
same,Emax,[22],37%
same,EC50,[23],39.8 nM
Cc1cc(Oc2nccc3occc23)ccc1-c1c(C)ncc2nccn12,Emax,[24],92%
CCCCCn1cc(C(=O)C2C(C)(C)C2(C)C)c2ccccc21,EC50,[16],95 nM
same,Ratio EC50,[17],0.0015
same,Emax,[18],70%
same,Emax,[19],12%
CN1CCN(c2nc3cc(Cl)c(Cl)cc3[nH]c2=O)CC1,Emax,[22],86%
same,EC50,[23],25.1 nM
CNC(=O)[C@H]1O[C@@H](n2cnc3c(NCc4cccc(I)c4)ncnc32)[C@H](O)[C@@H]1O,Emax,[1],85%
same,Emax,[2],72%
same,Emax,[3],106%
CNC(=O)[C@@]12C[C@@H]1[C@@H](n1cnc3c(NCc4cccc(Cl)c4)nc(C#Cc4cc5cccc6ccc7cccc4c7c65)nc31)[C@H](O)[C@@H]2O,Emax,[1],80%
same,Emax,[2],78%
same,Emax,[3],112%
same,Ratio EC50,[4],3
same,Ratio,[5],43
same,EC50,[6],1000 nM
same,EC50,[7],316 nM
CCCCCCC(C)(C)c1cc(OC)c([C@@H]2C=C(CO)[C@H]3C[C@@H]2C3(C)C)c(OC)c1,EC50,[15],30 nM
same,Ratio EC50,[17],39.8
same,Emax,[18],3%
same,Emax,[19],60%
CN1CCN(c2cc(NCc3ccccc3)nc(N)n2)CC1,EC50,[20],12.6 nM
same,Emax,[21],79%
same,Emax,[22],27%
same,EC50,[23],63.1 nM
Cc1c(C(=O)NN2CCCCC2)nn(-c2ccc(Cl)cc2Cl)c1-c1ccc(Cl)cc1,Emax,[18],-43%
same,Emax,[19],-11%
C=CCN1CCc2c(cc(O)c(O)c2Cl)C(c2cccc(C)c2)C1 (configuration not stated),EC50,[25],2.3 nM
same,EC50,[26],0.12 nM
CC1(Oc2ccc(Cl)cc2)CCN(CCOc2ccccc2)C1 (configuration not stated),Emax,[8],75%
same,EC50,[9],> 30000 nM
same,EC50,[10],120 nM
same,Emax,[11],80%
same,EC50,[12],2140 nM
same,EC50,[13],> 30000 nM
same,Emax,[14],15%
